Assay: xn = mol fraction of the nth substance listed
Settings: 100 kPa

C=CN1CCCC1=O + CCCC[n+]1ccn(C)c1.F[P-](F)(F)(F)(F)F
speed of sound [m/s]
Settings	x2 = 0	x2 = 0.1011	x2 = 0.2059	x2 = 0.3019	x2 = 0.3937	x2 = 0.5023	x2 = 0.584	x2 = 0.6946	x2 = 0.7788	x2 = 0.8707
298.15 K	1521.5	–	1506	1496.4	1487.8	1477.6	1470.5	1461.5	1455.7	1449.9
303.15 K	–	1498.9	1490.1	–	1473.5	1463.9	1457.4	1449.1	1443.4	1437.9
308.15 K	1483.7	1481.8	–	–	1459.2	1450.2	1444.3	–	1431.1	1425.8
313.15 K	1465	1464.7	1458.3	–	1444.9	–	1431.2	–	1419	1414
318.15 K	1446.5	–	–	1436.6	1430.9	1423.4	1418.4	1411.6	1407	1402.3
323.15 K	–	1431.1	–	–	1416.9	1410.2	1405.7	1399.4	1395.1	1390.8

CCCC[n+]1ccn(C)c1.F[P-](F)(F)(F)(F)F + C=CN1CCCC1=O
x1 = 1
Settings	speed of sound [m/s]
298.15 K	1443.8
303.15 K	1431.7
308.15 K	1419.8
313.15 K	1408.2
318.15 K	1396.8
323.15 K	1385.6

From a compilation of properties of binary mixtures (doi:10.1007/s10973-018-7427-0)
